Test results taken from patent US20040063790A1, “Methods for inhibition of angiogenesis” (The Scripps Research Institute, priority 1996, published 2004).
[ ]: non-standard residue; d: D form.

How the values were obtained:
[1] = target: T1, immobilized αvβ3 receptor (Homo sapiens, UniProt P05106+P06756); test: Ligand receptor binding assay with ELISA detection
T1 construct: selected purified integrins were separately immobilized in Titertek microtiter wells
Description: In addition, the ability of peptides to inhibit the binding of either MMP-2 or VN to immobilized αvβ3 was assessed with peptides 69601 (SEQ ID NO: 6) and 66203 (SEQ ID NO: 5).

[2] = test system: bFGF-induced angiogenesis; test: CAM assay, growth factor-induced angiogenesis, intravenous application; format: in vivo, chick; settings: for inhibition of bFGF-induced angiogenesis (branch points): intravenous 18 hours after bFGF induction, FIG. 12
Description: J. Pathol., 79:597 (1975). CAMs were prepared from chick embryos for subsequent induction of angiogenesis and inhibition thereof as described in Examples 4 and 5, respectively. Ten day old chick embryos were obtained from McIntyre Poultry (Lakeside, Calif.) and incubated at 37° C. with 60% humidity. A small hole was made through the shell at the end of the egg directly over the air sac with the use of a small crafts drill (Dremel, Division of Emerson Electric Co. Racine Wis.). A second hole was drilled on the broad side of the egg in a region devoid of embryonic blood vessels determined previously by candling the egg. […] A 1.0 centimeter (cm)×1.0 cm square window was cut through the shell over the dropped CAM with the use of a small model grinding wheel (Dremel). The small window allowed direct access to the underlying CAM.
Angiogenesis was induced by placing a 5 millimeter (mm)×5 mm Whatman filter disk (Whatman Filter paper No.1) saturated with Hanks Balanced Salt Solution (HBSS, GIBCO, Grand Island, N.Y.) or HBSS containing 150 nanograms/milliliter (ng/ml) recombinant basic fibroblast growth factor (bFGF) (Genzyme, Cambridge, Mass.) on the CAM of a 10-day chick embryo in a region devoid of blood vessels and the windows were latter sealed with tape. In other assays, 125 ng/ml bFGF was also effective at inducing blood vessel growth. For assays where inhibition of angiogenesis ws evaluated with intravenous injections of antagonists, angiogenesis was first induced with 1-2 μg/ml bFGF in fibroblast growth medium. Angiogenesis was monitored by photomicroscopy after 72 hours. CAMs were snap frozen, and 6 um cryostat sections were fixed with acetone and stained by immunofluorescence as described in Example 3C with 10 μg/ml of either anti-β1 monoclonal antibody CSAT or LM609.
For CAM preparations in which angiogenesis was induced with 1-2 μg/ml bFGF as previously described, synthetic peptides 69601 (control) and 66203 (SEQ ID NO: 5) were separately intravenously injected into CAM preparations 18 hours after bFGF induction of angiogenesis. The preparations were maintained for an additional 36-40 hours after which time the number of branch points were determined as previously described.
In other assays, peptide 85189 (SEQ ID NO: 15) was evaluated for inhibiting bFGF-induced angiogenesis in the CAM assay over a dosage range of 10 μg/embryo to 300 μg/embryo. The assay was performed as previously described.
In still further assays, peptide 85189 was compared to peptides 69601 and 66203 for anti-angiogenesis activity. The assay was performed as described above with the exception that 50 μg peptide were used.
The effectiveness of the different salt formulations of peptide 85189 was also evaluated in similar bFGF-induced CAM assays. The peptides were used at 100 μg/embryo. […] Untreated CAMs, labeled as “no cytokine” had approximately […] as many branch points as that seen with bFGF treatment, respectively 70 versus 190.
With the above-described protocol, the effect of MMP-2 fusion proteins, CTMMP-2(2-4), also referred to as CTMMP-2(445-467) and CTMMP-2(10-1), also referred to as CTMMP-2(274-637) was also evaluated. The assay was performed as previously described with the exception that 50 μg of fusion protein was administered to the bFGF-treated embryos. The effect of fusion protein treatment was assessed at 24 hours, 48 hours and 72 hours.
The 10 day old CAM preparation was used as previously described in Example 5A. Twenty-four hours after bFGF-induced angiogenesis was initiated, the organic peptidomimetics referred to as compounds 16 (81218), 17 (87292) and 18 (87293) were separately intravenously injected into the CAM preparation in a volume of 100 μl at a concentration of 1 mg/ml (100 μg/embryo) in 20% tetraglycol-PBS at pH 7.0. In parallel assays, compounds 7 (96112), 9 (99799), 10 (96229), 12 (112854) and 14 (96113) were similarly evaluated. […]

[3] = test system: human M21-L melanoma tumor; test: Tumor regression in the CAM assay, M21-L; format: in vivo, chick
Description: As described in Example 5, in addition to visually assessing the effect of anti-αvβ3 antagonists on growth factor or tumor induced angiogenesis, the effect of the antagonists was also assessed by measuring any changes to the tumor mass following exposure. For this analysis, the tumor-induced angiogenesis CAM assay system was prepared as described in Example 4C. At the end of the 7 day incubation period, the resulting tumors were resected from the CAMs and trimmed free of any residual CAM tissue, washed with 1 ml of phosphate buffer saline and wet weights were determined for each tumor.
To further assess the effects of αvβ3 antagonists on tumor growth and survival, fragments of human melanoma and fragments of carcinomas of the lung, pancreas, and larynx were placed on CAMS of 10-day old embryos as described in Example 3A.
Human M21-L melanoma tumor fragments (50 mg) were implanted on the CAMs of 10 day old embryos as described in Example 3A and 3C. Twenty four hours later, embryos received a single intravenous injection of 300 μg/100 μl of either the cyclo-RADfV (69601) and or cyclo-RGDfV (66203). After a total of 72 hours, tumors were removed, examined morphologically, and photographed with a stereo microscope.
Additional tumor regression assays were performed with the αvβ3-reactive peptide 85189 (SEQ ID NO: 15) against 69601 as a control. […]

T1 sequence (P06756 31-889 limits assumed): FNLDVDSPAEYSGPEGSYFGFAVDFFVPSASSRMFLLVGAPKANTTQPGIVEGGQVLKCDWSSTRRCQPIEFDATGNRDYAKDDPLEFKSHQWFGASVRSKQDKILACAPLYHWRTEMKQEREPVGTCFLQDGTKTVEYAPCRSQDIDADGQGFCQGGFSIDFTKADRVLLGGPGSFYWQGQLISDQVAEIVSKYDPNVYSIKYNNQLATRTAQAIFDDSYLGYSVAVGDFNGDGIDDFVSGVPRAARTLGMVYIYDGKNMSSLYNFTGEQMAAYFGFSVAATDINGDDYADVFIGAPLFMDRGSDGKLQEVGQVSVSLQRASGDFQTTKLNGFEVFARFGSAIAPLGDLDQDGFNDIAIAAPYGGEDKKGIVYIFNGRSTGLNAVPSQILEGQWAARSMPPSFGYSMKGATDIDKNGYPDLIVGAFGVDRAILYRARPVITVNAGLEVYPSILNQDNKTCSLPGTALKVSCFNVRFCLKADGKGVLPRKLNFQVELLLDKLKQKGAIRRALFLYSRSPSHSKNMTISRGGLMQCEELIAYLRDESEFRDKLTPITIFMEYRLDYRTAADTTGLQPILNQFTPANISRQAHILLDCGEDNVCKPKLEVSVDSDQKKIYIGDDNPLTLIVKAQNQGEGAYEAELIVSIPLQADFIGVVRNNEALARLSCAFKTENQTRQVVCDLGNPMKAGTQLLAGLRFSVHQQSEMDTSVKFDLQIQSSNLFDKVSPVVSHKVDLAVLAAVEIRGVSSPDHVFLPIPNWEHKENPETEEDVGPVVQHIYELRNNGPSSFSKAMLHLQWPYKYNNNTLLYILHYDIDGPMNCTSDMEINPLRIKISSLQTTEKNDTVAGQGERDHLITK
T1 sequence (P06756 891-1048 partner limits assumed): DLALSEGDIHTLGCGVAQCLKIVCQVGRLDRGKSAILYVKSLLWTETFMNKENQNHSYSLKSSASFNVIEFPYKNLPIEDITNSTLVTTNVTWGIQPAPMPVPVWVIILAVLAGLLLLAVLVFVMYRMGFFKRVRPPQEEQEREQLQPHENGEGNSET
T1 sequence (P05106 27-788): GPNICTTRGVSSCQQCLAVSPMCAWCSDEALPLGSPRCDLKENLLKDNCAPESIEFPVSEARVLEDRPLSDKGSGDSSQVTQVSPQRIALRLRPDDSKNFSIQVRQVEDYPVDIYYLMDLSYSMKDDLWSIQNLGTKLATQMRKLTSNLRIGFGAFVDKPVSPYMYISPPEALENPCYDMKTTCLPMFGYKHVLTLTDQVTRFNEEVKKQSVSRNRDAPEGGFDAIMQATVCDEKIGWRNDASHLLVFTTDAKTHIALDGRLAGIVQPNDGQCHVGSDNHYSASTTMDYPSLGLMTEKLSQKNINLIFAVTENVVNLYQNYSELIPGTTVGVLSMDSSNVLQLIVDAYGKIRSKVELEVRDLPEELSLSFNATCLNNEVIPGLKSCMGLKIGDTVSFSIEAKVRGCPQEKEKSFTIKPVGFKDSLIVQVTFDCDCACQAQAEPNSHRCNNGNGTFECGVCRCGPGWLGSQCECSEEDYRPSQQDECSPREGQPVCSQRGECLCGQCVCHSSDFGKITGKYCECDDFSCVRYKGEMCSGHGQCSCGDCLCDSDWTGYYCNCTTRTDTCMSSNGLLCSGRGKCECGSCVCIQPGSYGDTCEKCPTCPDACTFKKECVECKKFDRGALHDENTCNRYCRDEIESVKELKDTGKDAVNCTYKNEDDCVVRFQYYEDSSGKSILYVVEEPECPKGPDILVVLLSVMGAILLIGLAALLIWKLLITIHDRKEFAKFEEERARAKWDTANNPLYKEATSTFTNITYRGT

| Substance | inhibition of binding of MMP-2 or VN to immobilized αvβ3 [1] | inhibition of bFGF-mediated angiogenesis ([2]; 50 μg peptide, FIG. 14) | inhibiting angiogenesis, HCl versus TFA peptide ([2]; assays of Example 5) | inhibition of bFGF-induced angiogenesis (branch points) [2] | inhibition of vessel formation in tumor ([3]; single intravenous injection of 300 μg/100 μl, 72 hours) | inhibition of bFGF-induced angiogenesis, salt formulations ([2]; 100 μg/embryo) | number of branch points ([2]; 100 μg/embryo, bFGF alone 190, no cytokine 70) [branch points] | effect on tumor weight, M21-L ([3]; 100 μg intravenously 18 hours post-implantation, FIG. 16) |
| --- | --- | --- | --- | --- | --- | --- | --- | --- |
| cyclo (RGDfV) [Peptide 66203] | effective at inhibiting the binding of either substrate | effective inhibitors of bFGF-mediated angiogenesis | slightly more effective | completely inhibited | inhibited vessel formation | – | – | – |
| cyclo (RADfV) (cyclo(RAD[dF]V); SMILES CC(C)[C@@H]1NC(=O)[C@@H](Cc2ccccc2)NC(=O)[C@H](CC(=O)O)NC(=O)[C@H](C)NC(=O)[C@H](CCCNC(=N)N)NC1=O) [Peptide 69601, reference compound] | failed to have an effect with either ligand | – | – | absence of inhibition | – | no effect on inhibiting angiogenesis | 230 | lack of effect |
